Source: patent US12492236B2, “Fusion proteins for the treatment of cardiometabolic diseases” (Shattuck Labs, Inc., priority 2022, dated 2025)

T1: recombinant human Activin A (Homo sapiens, UniProt P08476)
T1 sequence (P08476 311-426): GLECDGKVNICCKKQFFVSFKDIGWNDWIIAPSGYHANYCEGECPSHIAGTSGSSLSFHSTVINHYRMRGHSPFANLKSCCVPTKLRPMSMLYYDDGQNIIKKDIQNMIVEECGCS

T2: recombinant human GDF-8 (Homo sapiens, UniProt O14793)
T2 sequence (O14793 267-375): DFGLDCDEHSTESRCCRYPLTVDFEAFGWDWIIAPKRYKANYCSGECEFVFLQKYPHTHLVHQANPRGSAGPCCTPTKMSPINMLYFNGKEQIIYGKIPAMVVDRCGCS

T3: glucose-dependent insulinotropic polypeptide receptor (GIPR) (Homo sapiens, UniProt P48546)
T3 construct: host or cells: HEK293T (GeneBLAzer GIPR-CRE-bla)
T3 sequence (P48546 22-466): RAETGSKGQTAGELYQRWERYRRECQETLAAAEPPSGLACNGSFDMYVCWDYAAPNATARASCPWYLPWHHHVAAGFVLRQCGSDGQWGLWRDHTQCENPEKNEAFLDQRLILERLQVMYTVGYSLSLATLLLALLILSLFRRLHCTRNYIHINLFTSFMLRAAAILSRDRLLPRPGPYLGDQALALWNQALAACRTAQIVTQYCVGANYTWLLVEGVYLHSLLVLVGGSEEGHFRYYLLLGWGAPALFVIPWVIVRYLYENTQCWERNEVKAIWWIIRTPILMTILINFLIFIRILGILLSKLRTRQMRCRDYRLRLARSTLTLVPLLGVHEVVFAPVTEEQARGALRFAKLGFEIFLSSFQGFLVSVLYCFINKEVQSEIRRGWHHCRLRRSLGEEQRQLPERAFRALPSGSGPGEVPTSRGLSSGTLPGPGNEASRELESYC

T4: GIP receptor (GIPR) (Rattus norvegicus, UniProt P43219)
T4 construct: endogenous in cells; host or cells: rat INS-1 insulinoma cells (with cAMP-luciferase reporter / pGloSensor-22F biosensor)
T4 sequence (P43219 19-455): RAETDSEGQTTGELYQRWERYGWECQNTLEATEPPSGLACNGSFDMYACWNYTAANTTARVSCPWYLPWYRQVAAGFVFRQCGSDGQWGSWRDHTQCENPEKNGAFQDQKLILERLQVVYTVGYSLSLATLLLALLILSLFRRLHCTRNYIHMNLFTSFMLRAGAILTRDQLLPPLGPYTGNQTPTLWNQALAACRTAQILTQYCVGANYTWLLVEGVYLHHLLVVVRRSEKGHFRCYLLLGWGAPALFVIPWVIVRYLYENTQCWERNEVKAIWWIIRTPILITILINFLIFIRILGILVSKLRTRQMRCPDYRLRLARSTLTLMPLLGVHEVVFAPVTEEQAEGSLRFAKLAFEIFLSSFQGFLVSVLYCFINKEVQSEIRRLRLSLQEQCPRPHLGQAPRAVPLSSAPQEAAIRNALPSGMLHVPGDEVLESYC


What was measured:
[1] = molecular target: T1, recombinant human Activin A; experiment: MSD platform-based binding assay on plate-bound Activin A; conditions: MSD signal, serial dilutions
Procedure: (§1) The binding by a recombinant human ACVR2B-Fc fusion protein to activin A (also known as Inhibin beta A) was characterized using a Meso Scale Discovery (MSD) platform-based assay. Briefly, Activin A was coated on a plate and 8× serial dilutions of the purified recombinant human ACVR2B-Fc fusion protein were also added in a series of wells. The protein captured by the plate-bound Activin A was detected using an anti-human Fc antibody and a SULFO-TAG conjugated secondary antibody.
(§2) The binding to Activin A by the GLP-1-Fc-ACVR2B fusion protein produced using the mmRNA constructs was investigated using a Meso Scale Discovery (MSD) platform-based assay. Briefly, HEK293T cells were transfected with each mRNA construct using lipofectamine 2000, and culture supernatants were collected after 48 hours. Activin A was coated on a plate, and 3× serial dilutions of the culture supernatants were added to the plate for capture by the plate-bound Activin A. The protein captured by the plate-bound Activin A was detected using an anti-human Fc antibody and a SULFO-TAG conjugated secondary antibody. The MSD signals generated by the culture supernatants of HEK293T cells transfected with different mmRNA constructs were plotted as a line graph.

[2] = molecular target: T2, recombinant human GDF-8; experiment: MSD platform-based binding assay on plate-bound GDF-8; conditions: MSD signal, serial dilutions
Procedure: as §1, with “GDF-8” for “activin A”, “myostatin)” for “Inhibin beta A)”, “GDF-8” for “Activin A”
as §2, with “GDF-8” for “Activin A”, “GDF-8.” for “Activin A.”

[3] = tested on: rat insulinoma INS-1 cells; experiment: in vitro glucose-stimulated insulin secretion (GSIS) in INS-1 cells; format: cell-based; conditions: 1 hour glucose, then 2 hour incubation, ELISA, FIG. 4B
From the text: X is a known inducer of GSIS.

[4] = tested on: HFD-fed mice (Male C57BL/6); experiment: glucose tolerance test (GTT) model in HFD-fed mice; format: in vivo
Procedure: Cages were changed once, then changed once a week.
The mice administered the above treatment by i.v. injections. The mice were then fasted for 18 hours and administered a dose of 2 g/kg glucose by i.v. injections. Blood samples were drawn by tail clip bleeding at 15, 30 and 60 minutes post dosing and cardiac bleeding was used at 2 hours after glucose injection as end-point.

[5] = tested on: HFD-fed mice (Male C57BL/6); experiment: longer-term obesity model in HFD-fed mice
From the text: Briefly, mice (Male C57BL/6) were of approximately 13 weeks of age were housed 4 mice per cage. Following 2 weeks of acclimation, mice were introduced to 60% kcal HFD (Research Diets D12492). Cages were changed once, then changed once a week. Weekly body weights and non-fasted blood glucose were collected. […] The longer-term obesity model assesses a number of end points associated with obesity related type 2 diabetes (FIG. 6A).
Mice (Male C57BL/6) were of approximately 13 weeks of age were housed 4 mice per cage. Following 2 weeks of acclimatation, mice were introduced to 60% kcal HFD (Research Diets D12492). Cages were changed once, then changed once a week. Weekly body weights and non-fasted blood glucose were collected.
Mice were injected by tail vein with vehicle or the drugs on Day 0, Day 4, Day 7, Day 10, Day 14, and Day 18. Body weights were measured every 2 days. Change in body weight was calculated and plotted.
Cumulative food intake was measured between day 0 and 3, between day 4 and 7, between day 7 and day 11, and between day 11 and day 14, and represented as average daily food intake. For food consumption, remaining food was weighed on days 3, 8, and 15, and subtracted from the starting weight. This value was then normalized to the number of mice in the cage, and the number of days the mice had access to the food prior to weighing.
Blood glucose levels were measured on Days 0, 1, 10 and 15 and plotted.
On day 19 during terminal necropsy, liver and subcutaneous white adipose tissue were recovered weighed from treated animals.
To further analyze the changes in liver, histopathological analysis was conducted. Briefly, the liver tissue was stained with hematoxylin and eosin (H&E) and evaluated using standard techniques.

[6] = molecular target: T3, glucose-dependent insulinotropic polypeptide receptor (GIPR); experiment: GeneBLAzer GIPR-CRE-bla HEK293T cell-based reporter assay; conditions: increasing amounts, FIG. 3B
Procedure: This assay is diagrammatically represented in FIG. 3A. […] In the presence of the β-lactamase LiveBLAzer™ substrate, cells expressing β-lactamase fluoresce blue (460 nm), while those not expressing β-lactamase fluoresce green (530 nm); higher 460/530 ratio indicates the activation of GIPR.
Briefly, GeneBLAzer® GIPR-CRE-bla HEK293T cells were added to wells of black-wall assay plates. […] To each well, LiverBLAzer-FRET B/G substrate mixture was added. The plate was covered with plate sealer and incubated at room temperature for 2 hours in the dark. Fluorescence emission was measured on SpectraMax plate reader at 460 nm and 530 nm with excitation set to 409 nm. After subtraction of background, average value at 460 nm (blue color) was divided by average value at 530 nm (green color) to obtain the 460/530 ratio.

[7] = molecular target: T4, GIP receptor (GIPR); experiment: cAMP-Glo assay in rat insulinoma INS-1 cells harboring a cAMP-luciferase reporter gene; format: cell-based; conditions: 1 hour glucose, then 2 hour incubation, FIG. 4A
From the text: Rat insulinoma INS-1 cells harboring a cAMP-luciferase reporter gene were used to study the activation of GIPR. Without wishing to be bound by theory, the activation of GIPR leads to temporary depletion of ATP because of consumption of ATP in cyclization reaction to produce cAMP as well as by phosphorylation by protein kinase A of its substrate. Without wishing to be bound by theory, the temporary depletion of ATP leads to an inhibition of luciferase activity, which needs ATP as a substrate.

binding to Activin A [1]	binding to GDF-8 [2]	Molecule	insulin in culture supernatant (GSIS) [3]	serum insulin time course following glucose administration ([4]; FIG. 7C)	serum glucose time course following glucose administration ([4]; i.v. treatment, 18 hours fast, 2 g/kg glucose, versus PBS control (200 to about 800 mg/dl), FIG. 7A)	glucose tolerance ([4]; summary of GTT model)	blood glucose levels ([5]; Days 0, 1, 10 and 15, compared to the untreated mice, FIG. 8E)	weights of individual mice ([5]; FIG. 8B)	liver histology: hepatocellular ballooning and steatosis ([5]; H&E, FIG. 8J)	plasma insulin levels on Day 1 ([5]; between 15 and 120 minutes after treatment, one way ANOVA p<0.05, FIG. 8C left panel)	average daily food intake ([5]; compared to the untreated mice, FIG. 8D)	liver weight: livers of PBS control mice versus treated mice ([5]; day 19 necropsy, FIG. 8G)	subcutaneous white adipose tissue (sWAT) weight ([5]; day 19 necropsy, versus PBS control, FIG. 8H)	tolerability ([5]; obesity model)	plasma insulin levels on Day 15 ([5]; one way ANOVA p<0.0001, FIG. 8C right panel)	decrease in liver collagen staining relative to tirzepatide or dulaglutide ([5]; picrosirius red, FIG. 8I)	liver collagen staining (fibrosis) ([5]; picrosirius red, FIG. 8I)	change in body weight ([5]; tail vein dosing Day 0, 4, 7, 10, 14, 18, FIG. 8A)	460/530 ratio, indicative of the activation of GIPR [6]	inhibition of luciferase (GIPR activation, cAMP accumulation) [7]
binds to the human Activin A	binds to the human GDF-8	GLP-1-Fc-ACVR2B: GLP-1 fused to ACVR2B extracellular domain via IgG1 hinge-CH2-CH3 Fc domain; SEQ ID NO: 154	–	–	–	–	–	–	–	–	–	–	–	–	–	–	–	–	–	–
–	–	GLP-1-Fc-GIP(Ag): GLP-1 fused to GIP agonist peptide (amino acids 1-42) via a hinge-CH2-CH3 Fc domain derived from IgG1; SEQ ID NO: 93	stimulated insulin production to a similar, if not greater magnitude than dulaglutide or tirzepatide	rapid induction of insulin	much smaller increase in serum glucose	improved glucose tolerance	decrease in blood glucose	induced weight loss	a decrease in hepatocellular ballooning and steatosis	rapid decrease in insulin levels	decrease in food intake	much heavier compared to the mice receiving treatments	decreased	well tolerated and no overt toxicities were noted	significant decrease in the levels of insulin	greater decrease in collagen staining	a decrease in collagen staining	progressive weight loss	–	–
–	–	GIP(Ag)-Fc-FGF19: GIP fused to FGF19 via a hinge-CH2-CH3 Fc domain derived from IgG1; SEQ ID NO: 88 (protein) YAEGTFISDYSIAMDKIHQQDFVNWLLAQKGKKNDWKHNITQPCPAPEAAGGPSVFLFPPKPKDTLMISRTPEVTCVVVDVSHEDPEVKFNWYVDGVEVHNAKTKPREEQYNSTYRVVSVLTVLHQDWLNGKEYKCKVSNKALPAPIEKTISKAKGQPREPQVYTLPPSRDELTKNQVSLTCLVKGFYPSDIAVEWESNGQPENNYKTTPPVLDSDGSFFLYSKLTVDKSRWQQGNVFSCSVMHEALHNHYTQKSLSLSPGKIEGRMDRDSSPLVHYGWGDPIRLRHLYTSGPHGLSSCFLRIRADGVVDCARGQSAHSLLEIKAVALRTVAIKGVHSVRYLCMGADGKMQGLLQYSEEDCAFEEEIRPDGYNVYRSEKHRLPVSLSSAKQRQLYKNRGFLPLSHFLPMLPMVPEEPEDLRGHLESDMFSSPLETDSMDPFGLVTGLEAVRSPSFEK	stimulated insulin production to a similar, if not greater magnitude than dulaglutide or tirzepatide	–	–	–	–	–	–	–	–	–	–	–	–	–	–	–	dose-dependent and saturable increase in 460/530 ratio	dose-dependent and saturable inhibition of luciferase with similar potency
